Target: T1, human BLT1 receptor (Homo sapiens, UniProt Q15722)
T1 construct: expressed in transfected cells; host or cells: HEK293
Experiment: BLT-1 cAMP Assay
Assay type: cell-based
Details: HEK293 cells recombinantly expressing human BLT1; antagonist activity vs forskolin 4 μM and LTB4 2 nM; cAMP (CisBio kit)
Experimental: The ability of compounds to antagonize the human BLT1 receptor was determined using a kit to measure changes in intracellular cyclic AMP levels (cAMP dynamic assay kit, Cisbio Cat. No. 62AM4PEC). […] The cell suspension was centrifuged at 200×g for 10 min and then resuspended in fresh assay medium to a density of 2.5×10^5 cells/mL. […] All subsequent liquid additions were performed using a BIORAPTR (FRD; Beckman Coulter). Next, 5 μL of cell suspension was added and incubated for 20 min. at 37° C. and 5% CO2 in a humidified plastic tray.
The levels of cAMP were detected using the CisBio kit following the manufacturer's instructions: cAMP-d2 vial was reconstituted with distilled water and then diluted accordingly with conjugate & lysis buffer. 5 µL of cAMP-d2 working solution was added to all of the wells of the assay plate. cAMP-Cryptate vial was reconstituted with distilled water and then diluted accordingly with conjugate & lysis buffer. 5 µL of cAMP-Cryptate working solution were added to the assay plate. The assay plate was shaken for 3 minutes and incubated at room temperature for 45 minutes, then read on Perkin Elmer Envision. cAMP standard curve and fit data were plotted using a 4 parameter dose response curve fitting algorithm to fit curve. […] After normalization to treated and untreated controls, the percent effect of signal at each compound concentration was calculated. The plot of percent effect versus the log of compound concentration was fit with a 4-parameter concentration response equation to calculate EC50 values.

T1 sequence (Q15722 whole entry): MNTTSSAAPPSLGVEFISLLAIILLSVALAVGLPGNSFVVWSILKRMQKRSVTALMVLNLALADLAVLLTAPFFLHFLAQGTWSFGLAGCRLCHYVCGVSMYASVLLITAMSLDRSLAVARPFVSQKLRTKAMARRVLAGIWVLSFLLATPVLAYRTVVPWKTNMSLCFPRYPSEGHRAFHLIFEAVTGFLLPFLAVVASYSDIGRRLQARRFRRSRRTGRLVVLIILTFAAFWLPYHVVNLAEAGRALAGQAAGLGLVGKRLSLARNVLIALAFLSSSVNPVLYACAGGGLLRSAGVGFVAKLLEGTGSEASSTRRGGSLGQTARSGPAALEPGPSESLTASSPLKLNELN

SMILES | EC50 [nM]
O=S(=O)(Nc1ccccc1-c1ccc2c(c1)OC[C@H](Cc1cn(-c3ccccc3)nn1)[C@H]2O)C(F)(F)F (racemic) [Example 14, 1,1,1-Trifluoro-N-(2-{(rac-trans)-4-hydroxy-3-[(1-phenyl-1H-1,2,3-triazol-4-yl)methyl]-3,4-dihydro-2H-chromen-7-yl}phenyl)methanesulfonamide] | 101
O=S(=O)(Nc1ccccc1-c1ccc2c(c1)OC[C@H](Cc1ncco1)[C@H]2O)C(F)(F)F (racemic) [Example 15, 1,1,1-Trifluoro-N-{2-[(rac-trans)-4-hydroxy-3-(1,3-oxazol-2-ylmethyl)-3,4-dihydro-2H-chromen-7-yl]phenyl}methanesulfonamide] | 994
Cc1nc(C[C@@H]2COc3cc(-c4ccccc4NS(=O)(=O)C(F)(F)F)ccc3[C@H]2O)cs1 (racemic) [Example 16, 1,1,1-Trifluoro-N-(2-{(rac-trans)-4-hydroxy-3-[(2-methyl-1,3-thiazol-4-yl)methyl]-3,4-dihydro-2H-chromen-7-yl}phenyl)methanesulfonamide] | 826
O=S(=O)(Nc1ccccc1-c1ccc2c(c1)OC[C@H](Cc1ncccc1F)[C@H]2O)C(F)(F)F (racemic) [Example 19, 1,1,1-Trifluoro-N-(2-{(rac-trans)-3-[(3-fluoropyridin-2-yl)methyl]-4-hydroxy-3,4-dihydro-2H-chromen-7-yl}phenyl)methanesulfonamide] | 1600
Cc1cccc(C[C@H]2COc3cc(-c4ccccc4NS(=O)(=O)C(F)(F)F)ccc3[C@@H]2O)n1 (racemic) [Example 20, 1,1,1-Trifluoro-N-(2-{(rac-trans)-4-hydroxy-3-[(6-methylpyridin-2-yl)methyl]-3,4-dihydro-2H-chromen-7-yl}phenyl)methanesulfonamide] | 215
Cc1nnc(C[C@H]2COc3cc(-c4ccccc4NS(=O)(=O)C(F)(F)F)ccc3[C@@H]2O)s1 (racemic) [Example 23, 1,1,1-Trifluoro-N-(2-{(rac-trans)-4-hydroxy-3-[(5-methyl-1,3,4-thiadiazol-2-yl)methyl]-3,4-dihydro-2H-chromen-7-yl}phenyl)methanesulfonamide] | 32
O=S(=O)(Nc1ccccc1-c1ccc2c(c1)OC[C@H](Cc1csc(-c3ccccc3)n1)[C@H]2O)C(F)(F)F (racemic) [Example 24, 1,1,1-Trifluoro-N-(2-((rac-trans)-4-hydroxy-3-((2-phenylthiazol-4-yl)methyl)chroman-7-yl)phenyl)methanesulfonamide] | 329
O=S(=O)(Nc1ccccc1-c1ccc2c(c1)OC[C@H](Cc1cnccn1)[C@H]2O)C(F)(F)F (racemic) [Example 27, 1,1,1-Trifluoro-N-{2-[(rac-trans)-4-hydroxy-3-(pyrazin-2-ylmethyl)-3,4-dihydro-2H-chromen-7-yl]phenyl}methanesulfonamide] | 209
O=S(=O)(Nc1ccccc1-c1ccc2c(c1)OC[C@H](Cc1cccnn1)[C@H]2O)C(F)(F)F (racemic) [Example 28, 1,1,1-Trifluoro-N-{2-[(rac-trans)-4-hydroxy-3-(pyridazin-3-ylmethyl)-3,4-dihydro-2H-chromen-7-yl]phenyl}methanesulfonamide] | 2140
O=S(=O)(Nc1ccccc1-c1ccc2c(c1)OC[C@H](Cc1ccc(F)cn1)[C@H]2O)C(F)(F)F (racemic) [Example 29, 1,1,1-Trifluoro-N-(2-((rac-trans)-3-((5-fluoropyridin-2-yl)methyl)-4-hydroxychroman-7-yl)phenyl)methanesulfonamide] | 464
CS(=O)(=O)Nc1ccccc1-c1ccc2c(c1)OCC(Cc1ccccn1)C2O (racemic) [Example 30, N-(2-((3,4-Rac-trans)-4-hydroxy-3-(pyridin-2-ylmethyl)chroman-7-yl)phenyl)methanesulfonamide] | 414
O=S(=O)(Nc1ccccc1-c1ccc2c(c1)OC[C@@H](Cc1cscn1)[C@H]2O)C(F)(F)F (racemic) [Example 31, 1,1,1-trifluoro-N-(2-(3,4-rac-cis)-4-hydroxy-3-(thiazol-4-ylmethyl)chroman-7-yl)phenyl)methanesulfonamide] | 1370
O=S(=O)(Nc1ccccc1-c1ccc2c(c1)OC[C@@H](Cc1cscn1)[C@@H]2O)C(F)(F)F (racemic) [Example 32, 1,1,1-trifluoro-N-(2-((3,4-rac-trans)-4-hydroxy-3-(thiazol-4-ylmethyl)chroman-7-yl)phenyl)methanesulfonamide] | 17
O=S(=O)(Nc1ccccc1-c1ccc2c(c1)OCC(Cc1cccs1)C2O)C(F)(F)F (racemic) [Example 33, 1,1,1-Trifluoro-N-(2-((3,4-rac-trans)-4-hydroxy-3-(thiophen-2-ylmethyl)chroman-7-yl)phenyl)methanesulfonamide] | 53
O=S(=O)(Nc1ccccc1-c1ccc2c(c1)OCC(Cc1cc3ccccc3s1)C2O)C(F)(F)F (racemic) [Example 34, N-(2-((3,4-rac-trans)-3-(benzo[b]thiophen-2-ylmethyl)-4-hydroxychroman-7-yl)phenyl)-1,1,1-trifluoromethanesulfonamide] | 44
Cn1nc(-c2ccccc2)cc1C[C@H]1COc2cc(-c3ccccc3NS(=O)(=O)C(F)(F)F)ccc2[C@@H]1O (racemic) [Example 35, 1,1,1-Trifluoro-N-(2-((rac-trans)-4-hydroxy-3-((1-methyl-3-phenyl-1H-pyrazol-5-yl)methyl)chroman-7-yl)phenyl)methanesulfonamide] | 824
O=S(=O)(Nc1ccccc1-c1ccc2c(c1)OC[C@@H](Cc1ccc(-c3ccccc3)cn1)[C@@H]2O)C(F)(F)F (racemic) [Example 38, 1,1,1-Trifluoro-N-(2-{(rac-trans)-4-hydroxy-3-((5-phenylpyridin-2-yl)methyl)chroman-7-yl)phenyl)methanesulfonamide] | 4
O=S(=O)(Nc1ccccc1-c1ccc2c(c1)OC[C@@H](Cc1cnc(-c3ccccc3)s1)[C@@H]2O)C(F)(F)F (racemic) [Example 41, 1,1,1-Trifluoro-N-(2-((rac-trans)-4-hydroxy-3-((2-phenylthiazol-5-yl)methyl)chroman-7-yl)phenyl)methanesulfonamide] | 225
O=S(=O)(Nc1nccnc1-c1ccc2c(c1)OCC(Cc1ccccn1)C2O)C(F)(F)F (racemic) [Example 74, 1,1,1-Trifluoro-N-(3-((3,4-rac-trans)-4-hydroxy-3-(pyridin-2-ylmethyl)chroman-7-yl)pyrazin-2-yl)methanesulfonamide] | 4050
O=S(=O)(Nc1ccccc1-c1ccc2c(c1)OC[C@@H](Cc1nnc(-c3ccc(F)cc3)o1)[C@@H]2O)C(F)(F)F (relative stereo) [Example 44, 1,1,1-Trifluoro-N-(2-((3,4-trans)-3-((5-(4-fluorophenyl)-1,3,4-oxadiazol-2-yl)methyl)-4-hydroxychroman-7-yl)phenyl)methanesulfonamide] | 1550
CC(C)(C)c1nc(C[C@@H]2COc3cc(-c4ccccc4NS(=O)(=O)C(F)(F)F)ccc3[C@H]2O)cs1 (relative stereo) [Example 45, N-(2-((3,4-trans)-3-((2-(tert-butyl)thiazol-4-yl)methyl)-4-hydroxychroman-7-yl)phenyl)-1,1,1-trifluoromethanesulfonamide] | 1430
O=S(=O)(Nc1ccccc1-c1ccc2c(c1)OC[C@@H](Cc1ccncc1)[C@@H]2O)C(F)(F)F (single isomer, unassigned) [Example 25, 1,1,1-trifluoro-N-{2-[(3R,4S or 3S,4R)-4-hydroxy-3-(pyridin-4-ylmethyl)-3,4-dihydro-2H-chromen-7-yl]phenyl}methanesulfonamide] | 412
O=S(=O)(Nc1ccccc1-c1ccc2c(c1)OC[C@H](Cc1ccncc1)[C@H]2O)C(F)(F)F (single isomer, unassigned) [Example 26, 1,1,1-trifluoro-N-{2-[(3S,4R or 3R,4S)-4-hydroxy-3-(pyridin-4-ylmethyl)-3,4-dihydro-2H-chromen-7-yl]phenyl}methanesulfonamide] | 121
Cn1nc(-c2ccccc2)cc1C[C@H]1COc2cc(-c3ccccc3NS(=O)(=O)C(F)(F)F)ccc2[C@@H]1O (single isomer, unassigned) [Example 36, 1,1,1-Trifluoro-N-(2-((3S,4R or 3R,4S)-4-hydroxy-3-((1-methyl-3-phenyl-1H-pyrazol-5-yl)methyl)chroman-7-yl)phenyl)methanesulfonamide] | 737
Cn1nc(-c2ccccc2)cc1C[C@@H]1COc2cc(-c3ccccc3NS(=O)(=O)C(F)(F)F)ccc2[C@H]1O (single isomer, unassigned) [Example 37, 1,1,1-Trifluoro-N-(2-((3R,4S or 3S,4R)-4-hydroxy-3-((1-methyl-3-phenyl-1H-pyrazol-5-yl)methyl)chroman-7-yl)phenyl)methanesulfonamide] | 754
O=S(=O)(Nc1ccccc1-c1ccc2c(c1)OC[C@H](Cc1ccc(-c3ccccc3)cn1)[C@H]2O)C(F)(F)F (single isomer, unassigned) [Example 39, (2-((3S,4R or 3R,4S)-4-hydroxy-3-((5-phenylpyridin-2-yl)methyl)chroman-7-yl)phenyl)((trifluoromethyl)sulfonyl)amide] | 1
